The record followed here is ChEMBL document CHEMBL4819077, “Design, synthesis, and biological evaluation of diosgenin-indole derivatives as dual-functional agents for the treatment of Alzheimer's disease” (Eur J Med Chem, 2021).

The source made the active and inactive calls. The rule behind the calls is not given here.

The subject of data set [1] is SH-SY5Y. In words: Cytotoxicity against human SH-SY5Y cells assessed as reduction in cell viability measured after 24 hrs by MTT assay. The class given is cell-based.
Data set [2] deals with SH-SY5Y. The data set can be described thus: Neuroprotection against 6-OHDA-induced cytotoxicity in human SH-SY5Y cells assessed as increase in cell viability at 100 uM incubated for 2 hr before 6-OHDA challenge and measured after 24 hrs by MTT assay. The class given is functional, cell-based. The settings on record: time 26.0 hrs.
In data set [3] the test system is SH-SY5Y. The data set can be described thus: Neuroprotection against H202-induced cytotoxicity in human SH-SY5Y cells assessed as increase in cell viability at 100 uM incubated for 2 hr before H202 challenge and measured after 24 hrs by MTT assay. Particulars: time 26.0 hrs. The class given is functional, cell-based.
Data set [4] is described as follows: Acute toxicity in ICR mouse assessed as mortality at 500 mg/kg, po administered as single dose measured after 14 days. The settings on record: in vivo, 336 h, time 14 day. It counts as organism-based.
For data set [5], the system named is SH-SY5Y. In words: Neuroprotection against H202-induced human SH-SY5Y cell damage assessed as decrease in ROS accumulation at 50 uM incubated for 2 hr before H202 challenge and measured after 24 hrs by DCFDA staining based fluorescence microscopy. The class given is functional. The settings on record: time 26.0 hrs.
Data set [6] in a line: Acute toxicity in ICR mouse assessed as abnormal behaviors at 500 mg/kg, po administered as single dose measured after 14 days. The class given is organism-based. Particulars: in vivo, 336 h, time 14 day.
Data set [7] deals with SH-SY5Y. In words: Neuroprotection against H202-induced oxidative stress in human SH-SY5Y cells assessed as cell protection at 10 uM preincubated for 2 hr before H202 challenge and measured after 24 hrs by MTT assay. The class given is functional.
The nature of data set [8]: Acute toxicity in ICR mouse assessed as abnormalities in liver at 500 mg/kg, po administered […] 14 days by HE staining based assay. The class given is organism-based. Particulars: in vivo, 336 h, time 14 day.
Data set [9] concerns Mus musculus. In words: Neuroprotection against icv infused amyloid beta (1 to 42)-induced ICR mouse model of Alzheimer's disease assessed as rescue of pyknotic nucleus in hippocampal at to 4 to 20 mg/kg, po administered daily for 7 days by HE staining. The class given is functional, organism-based. The settings on record: dose 4-20 mg/kg, time 7.0 day.
Data set [10] can be described thus: Acute toxicity in ICR mouse assessed as abnormalities in spleen at 500 mg/kg, po administered […] 14 days by HE staining based assay. Particulars: in vivo, 336 h, time 14 day. It counts as organism-based.
Data set [11] deals with SH-SY5Y. The data set can be described thus: Neuroprotection against H202-induced human SH-SY5Y cell damage assessed as decrease in ROS accumulation at 10 uM incubated for 2 hr before H202 challenge and measured after 24 hrs by DCFDA staining based fluorescence microscopy. The class given is functional. The settings on record: time 26.0 hrs.
The subject of data set [12] is SH-SY5Y. In words: Neuroprotection against Abeta-induced oxidative stress in human SH-SY5Y cells assessed as cell protection at 10 uM incubated for 2 hr before Abeta(1-42) challenge and measured after 24 hrs by MTT assay. It counts as functional. Particulars: time 26 hrs.
The test system of data set [13] is SH-SY5Y. In words: Neuroprotection against Abeta-induced cytotoxicity in human SH-SY5Y cells assessed as increase in cell viability upto 50 uM incubated for 2 hr before Abeta(1-42) challenge and measured after 24 hrs by MTT assay. Particulars: dose microM <=50, time 2.0 hrs. The class given is functional, cell-based.
Data set [14] deals with SH-SY5Y. In words: Neuroprotection against Abeta-induced cytotoxicity in human SH-SY5Y cells assessed as increase in cell viability at 100 uM incubated for 2 hr before Abeta(1-42) challenge and measured after 24 hrs by MTT assay. It counts as functional, cell-based.
Data set [15] concerns SH-SY5Y. The data set can be described thus: Neuroprotection against H202-induced cytotoxicity in human SH-SY5Y cells assessed as increase in cell viability upto 50 uM incubated for 2 hr before H202 challenge and measured after 24 hrs by MTT assay. Particulars: dose microM <=50, time 2.0 hrs. It counts as functional, cell-based.
The nature of data set [16]: Acute toxicity in ICR mouse assessed as abnormalities in heart at 500 mg/kg, po administered […] 14 days by HE staining based assay. The settings on record: in vivo, 336 h, time 14 day. The class given is organism-based.
Data set [17] is described as follows: Acute toxicity in ICR mouse assessed as body weight loss at 500 mg/kg, po administered as single dose measured after 14 days. It counts as organism-based. Particulars: in vivo, 336 h, time 14 day.
The test system of data set [18] is Mus musculus. In words: Neuroprotection against icv infused amyloid beta (1 to 42)-induced ICR mouse model of Alzheimer's disease assessed as rescue of decrease neuronal cells in hippocampal at to 4 to 20 mg/kg, po administered daily for 7 days by HE staining. It counts as functional, organism-based. The settings on record: dose 4-20 mg/kg, time 7.0 day.
Data set [19] relates to Mus musculus. In words: Improvement in learning and spatial memory in icv infused amyloid beta (1 to 42)-induced ICR mouse model of Alzheimer's disease assessed as improved target quadrant exploration time at 4 to 20 mg/kg, po administered daily for 7 days starting from 7 days post surgery by Morris water maze test. The class given is functional, organism-based. Particulars: dose 4-20 mg/kg, time 7.0 day.

The nature of data set [20]: Acute toxicity in ICR mouse assessed as abnormalities in kidney at 500 mg/kg, po administered […] 14 days by HE staining based assay. It counts as organism-based. Particulars: in vivo, 336 h, time 14 day.
Data set [21] has as its system SH-SY5Y. In words: Neuroprotection against 6-OHDA-induced cytotoxicity in human SH-SY5Y cells assessed as increase in cell viability upto 50 uM incubated for 2 hr before 6-OHDA challenge and measured after 24 hrs by MTT assay. It counts as functional, cell-based. Particulars: dose microM <=50, time 2.0 hrs.
A short description of data set [22]: Acute toxicity in ICR mouse assessed as abnormalities in lung at 500 mg/kg, po administered […] 14 days by HE staining based assay. The class given is organism-based. The settings on record: in vivo, 336 h, time 14 day.
Data set [23] has as its system SH-SY5Y. The data set can be described thus: Neuroprotection against 6-OHDA-induced oxidative stress in human SH-SY5Y cells assessed as cell protection at 10 uM preincubated for 2 hr before 6-OHDA challenge and measured after 24 hrs by MTT assay. It counts as functional. The settings on record: time 26 hrs.
The subject of data set [24] is SH-SY5Y. In words: Neuroprotection against Abeta-induced oxidative stress in human SH-SY5Y cells assessed as cell protection at 1 mM incubated for 2 hr before Abeta(1-42) challenge and measured after 24 hrs by MTT assay. It counts as functional. Particulars: time 26 hrs.
The test system of data set [25] is SH-SY5Y. The data set can be described thus: Neuroprotection against H202-induced oxidative stress in human SH-SY5Y cells assessed as cell protection at 1 mM preincubated for 2 hr before H202 challenge and measured after 24 hrs by MTT assay. The class given is functional. Particulars: time 26 hrs.
Data set [26] has as its system SH-SY5Y. In words: Neuroprotection against 6-OHDA-induced oxidative stress in human SH-SY5Y cells assessed as cell protection at 1 mM preincubated for 2 hr before 6-OHDA challenge and measured after 24 hrs by MTT assay. Particulars: time 26 hrs. It counts as functional.

Consider `COc1ccc2[nH]cc(CCNC(=O)Oc3ccc4c(c3)CC[C@@H]3[C@@H]4CC[C@]4(C)[C@@H]5[C@H](C[C@@H]34)O[C@]3(CC[C@@H](C)CO3)[C@H]5C)c2c1`, for which the Activity result in the data set on SH-SY5Y [1] is “Non-Toxic”; in [4], “Non-Toxic”; in data set [6] it was “Non-Toxic”; in the data set on SH-SY5Y [7], 52.9%; in data set [8], “Non-Toxic”; in data set [10] it was “Non-Toxic”. Also, the Activity is 54.4% in the data set on SH-SY5Y [12]; “Non-Toxic” in data set [16]; “Non-Toxic” in [17]; “Non-Toxic” in data set [20]; “Non-Toxic” in data set [22]; 38.4% in the data set with SH-SY5Y [23]. In addition, the outcome with SH-SY5Y [2], in the data set on SH-SY5Y [3], in the data set on SH-SY5Y [5] and with SH-SY5Y [14] was inactive. Besides, the result in the data set with Mus musculus [9], in the data set with SH-SY5Y [11], in the data set with SH-SY5Y [13], in the data set with SH-SY5Y [15], in the data set on Mus musculus [18] and in the data set on Mus musculus [19] was Active. For the same compound, the result in the data set with SH-SY5Y [21] was Active.

As for `CC(=O)N[C@@H](CS)C(=O)O` [ACETYLCYSTEINE], the figures for the Activity with SH-SY5Y [24], in the data set with SH-SY5Y [25] and with SH-SY5Y [26] were 67.6%, 84.73% and 83.59%, respectively.
